The assay has as its target T1, human GPR119 (Homo sapiens, UniProt Q8TDV5).
T1 construct: expressed in transfected cells
T1 sequence (Q8TDV5 1-335): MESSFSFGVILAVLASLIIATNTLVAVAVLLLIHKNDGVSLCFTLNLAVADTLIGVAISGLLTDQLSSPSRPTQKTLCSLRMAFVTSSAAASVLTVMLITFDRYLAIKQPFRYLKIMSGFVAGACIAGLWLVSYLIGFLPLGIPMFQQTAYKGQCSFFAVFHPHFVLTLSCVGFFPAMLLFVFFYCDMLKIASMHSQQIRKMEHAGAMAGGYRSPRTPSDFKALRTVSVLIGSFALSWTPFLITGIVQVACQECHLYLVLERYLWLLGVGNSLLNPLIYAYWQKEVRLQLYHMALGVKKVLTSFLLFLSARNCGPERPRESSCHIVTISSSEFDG
In words: Functional cellular assay measuring GPR119-mediated cAMP release (HTRF) in HEK-293 cells stably expressing recombinant GPR119. The format is cell-based. Conditions: cell line expressing human GPR119, 30 minutes at room temperature. As to the method:
Functional Cellular Assays Measuring GPR119-mediated cAMP Release
Compounds of the present disclosure, which are agonists of GPR119, were characterized by functional assays measuring the cAMP response of HEK-293 cell lines stably expressing recombinant GPR119 from man, mouse or rat, or by using the hamster cell line HIT-T15 expressing GPR119 endogenously. The cAMP content was determined using a kit based on homogenous time-resolved fluorescence (HTRF) from Cisbio Corp. (cat. no. 62AM4PEC). For preparation, cells were split into T175 culture flasks and grown to near confluency in medium (DMEM/10% FCS for HEK-293 cells, and F-12K medium/10% horse serum/2.5% FCS for HIT-T15 cells, respectively). Medium was then removed and cells washed with PBS lacking calcium and magnesium ions, followed by proteinase treatment with accutase (Sigma-Aldrich, cat. no. A6964). Detached cells were washed and resuspended in assay buffer (1×HBSS; 20 mM HEPES, 0.1% BSA, 2 mM IBMX) and cellular density determined. They were then diluted to 400000 cells/mL and 25 μL-aliquots dispensed to the wells of 96-well plates. For measurement, 25 μL of test compound in assay buffer was added and incubated for 30 minutes at room temperature. After addition of HTRF reagents diluted in lysis buffer, the plates were incubated for 1 hour, followed by measuring the fluorescence ratio at 665 vs. 620 nm. Potency of the agonists was quantified by determining the concentrations that caused 50% of the maximal response/activation (EC50). See Table 6 for exemplary data obtained using the cell line expressing human GPR119.
(TR-FRET usually uses a lanthanide donor and a delayed reading to cut background.)
One may read the EC50 as the concentration giving half of the maximal effect. On to `NC(=O)OC1CN(c2ncc(N3CC[C@@H](Oc4ccc(OCC(F)(F)F)nc4)C3=O)cn2)C1` [Compound 5-01], for which the EC50 is 458 nM. The value for `O=C(C1CN(c2ncc(N3CC[C@@H](Oc4ccc(OCC(F)(F)F)nc4)C3=O)cn2)C1)N1CCCC1` [Compound 4-15] was 84 nM; that for `C[S+]([O-])C1CN(c2ncc(N3CC[C@@H](Oc4ccc(OCC(F)(F)F)nc4)C3=O)cn2)C1` (stereo partly shown) [Compound 1-15] was 248 nM; that for `O=C(C1CN(c2ncc(N3CC[C@@H](Oc4ccc(OCC(F)(F)F)nc4)C3=O)cn2)C1)N1CCC1` [Compound 4-22] was 116 nM. For `CN(C)C(=O)C1CN(c2ncc(N3CC[C@@H](Oc4ccc(C(=O)C5CC5)cc4)C3=O)cn2)C1` [Compound 2-01], the EC50 amounted to 218 nM. With `COC(=O)C1CN(c2ccc(N3CC[C@@H](Oc4ccc(OCC5CC5)nc4)C3=O)cn2)C1` [Compound 1-07] the figure was 30 nM. The value for `CN(CC(N)=O)C(=O)C1CN(c2ncc(N3CC[C@@H](Oc4ccc(OCC(F)(F)F)nc4)C3=O)cn2)C1` [Compound 4-18] was 398 nM; that for `C[S+]([O-])C1CN(c2ncc(N3CCC(Cc4ccc(OCC(F)(F)F)nc4)C3=O)cn2)C1` (single isomer, unassigned) [Compound 1-46] was 411 nM; that for `NC1CN(c2ncc(N3CC[C@@H](Oc4ccc(OCC(F)(F)F)nc4)C3=O)cn2)C1` [Compound 1-38] was 9840 nM.

As for `N#Cc1cc(N2CC[C@@H](Oc3ccc(Oc4ccc(F)cc4)nc3)C2=O)cnc1N1CC(O)C1` [Compound 1-03], the concentration giving a half-maximal response (EC50) is 255 nM. With `CN(C)C(=O)C1CN(c2ccc(N3CC[C@@H](Oc4ccc(OCC(F)(F)F)nc4)C3=O)cn2)C1` [Compound 1-10] the figure was 44 nM; with `CN(C)C(=O)C1CN(c2ncc(N3CC[C@@H](Oc4ccc(-c5nccs5)cc4)C3=O)cn2)C1` [Compound 2-03], 324 nM; with `O=C(NC1CC1)C1CN(c2ncc(N3CC[C@@H](Oc4ccc(Oc5ccc(F)cc5)nc4)C3=O)cn2)C1` [Compound 4-09], 1520 nM. The value for `NC(=O)CNC(=O)C1CN(c2ncc(N3CC[C@@H](Oc4ccc(Oc5ccc(F)cc5)nc4)C3=O)cn2)C1` [Compound 4-02] was 6710 nM.

As to `CN(C)C(=O)C1CN(c2ncc(N3CC[C@@H](Oc4ccc(C(=O)c5ccc(F)cc5)nc4)C3=O)cn2)C1` [Compound 2-06], the EC50 came out at 145 nM.

For the molecule `O=C(NCO)C1CN(c2ccc(N3CC[C@@H](Oc4ccc(OCC(F)(F)F)nc4)C3=O)cn2)C1` [Compound 5-04], the half-maximal effective concentration (EC50) is 146 nM.

With `CN(C(=O)C1CN(c2ncc(N3CC[C@@H](Oc4ccc(OCC(F)(F)F)nc4)C3=O)cn2)C1)C1CC1` [Compound 4-19], the EC50 came to 85 nM. The value for `CCN(CC)C(=O)C1CN(c2ncc(N3CC[C@@H](Oc4ccc(OCC(F)(F)F)nc4)C3=O)cn2)C1` [Compound 4-14] was 84 nM. The value for `NC(=O)C1CN(c2ccc(N3CC[C@@H](Oc4ccc(OCC(F)(F)F)nc4)C3=O)cn2)C1` [Compound 4-26] was 101 nM; that for `CS(=O)(=O)C1CN(c2ncc(N3CC[C@@H](Oc4ccc(Oc5ccc(F)cc5)nc4)C3=O)cn2)C1` [Compound 1-18] was 343 nM; that for `CS(=O)(=O)C1CN(c2ncc(N3CC[C@@H](Oc4ccc(C(=O)C5CC5)nc4)C3=O)cn2)C1` [Compound 1-33] was 664 nM. With `CN(C)C(=O)C1CN(c2ncc(N3CC[C@@H](Oc4ccc(Oc5ccc(F)cc5)nc4)C3=O)cn2)C1` [Compound 1-23] the figure was 189 nM; with `CN(C)C(=O)C1CN(c2ccc(N3CC[C@@H](Oc4ccc(OCC5CC5)nc4)C3=O)cn2)C1` [Compound 1-06], 170 nM.

As for `O=C(O)C1CN(c2ncc(N3CC[C@@H](Oc4ccc(OCC(F)(F)F)nc4)C3=O)cn2)C1` [Compound 3-04], the EC50 stood at 9160 nM. The value for `O=C(C1CN(c2ncc(N3CC[C@@H](Oc4ccc(Oc5ccc(F)cc5)nc4)C3=O)cn2)C1)N1CCC(O)CC1` [Compound 4-06] was 665 nM.

(Values after patent US10392366B2, “Azetidine compounds as GPR119 modulators for the treatment of diabetes, obesity, dyslipidemia and related disorders” (SANOFI, priority 2017, dated 2019).)
